Converted amounts (≈) assume the structure as drawn.
How the values were obtained:
Assay type in all cases: cell-based
[1] = tested on: U937 cells; assay: Escape velocity, time and concentration dependence of PMA; design: Escape velocity Ave.: unit not given here
Procedure: This experiment was conducted to test the effect of PMA concentration on the escape velocity of U937 cells. PMA concentrations of 10 ng/ml, 1 ng/ml, 100 pg/ml, 10 pg/ml and 1 pg/ml were tested. The control sample received EtOH and not PMA.
The PMA concentration was tested at three timepoints: 1 hour, 3 hours and 5 hours. At each timepoint, 300 μl of cells were removed from each flask. The cells were then spun for 5 minutes at 5000 rpm. The cells were then resuspended in […] PBS/1% BSA and […] of trypan blue.

[2] = tested on: HL-60 cells; assay: Escape velocity, differentiation of HL-60 cells; conditions: 200 ng/ml PMA
Procedure: Initial tests were performed using HL-60 cells treated with PMA. HL-60 cells were seeded at about 1-3×10^6 cells per well in six well plates. The cells were treated with 200 ng/ml PMA while the control cells were treated with ethanol (EtOH) vehicle for four hours at 37° C. After incubation for four hours the treated cells were washed with PBS and re-fed with growth media. The treated HL-60 cells were then allowed to differentiate for 72 hours in normal growth media. After the 72 hour period, the untreated control cells were collected by centrifugation, washed with PBS and pelleted for resuspension at 1.5×10^6 cells/ml in PBS/1% BSA. Treated cells were trypsinized and collected by centrifugation then washed in PBS and pelleted for resuspension at 1×10^6 cells/ml in PBS/1% BSA. The cells were then subjected to Optophoretic analysis by measuring the escape velocities of the treated and control cells. Table 23 shown below illustrates the measured escape velocities of the undifferentiated and differentiated cells at 72 hours post treatment.

[3] = tested on: U937 cells; assay: Escape velocity, PMA inhibition by bisindolymaleimide; conditions: 10 ng/ml PMA only, four hours
From the text: The objective of this experiment was to test the effect of bisindolymaleimide on cells exposed to PMA. Bisindolymaleimide is a Protein Kinase C inhibitor and should block the effect of PMA on U937 cells and their escape velocities. As shown in this and prior experiments, exposure of U937 cells to PMA results in an increase in the escape velocity of the cells. Therefore, it is anticipated that addition of bisindolymaleimide will reduce or eliminate the increase in escape velocity caused by PMA. This has in fact been observed in the data shown below.
Bisindolymaleimide was tested at two concentrations: 200 ng/ml and 50 ng/ml. Samples not treated with bisindolymaleimide received an equivalent amount of the carrier, MeOH, as a control. […] The concentration of PMA tested was 10 ng/ml. Samples not receiving PMA received DMSO.
Once the flasks were prepared, they were incubated at 37° C. 5% CO2 for four hours. At the four hour timepoint, 300 μl of cells were removed from each flask and pelleted at 5000 rpm for 5 minutes. The cells were then resuspended in 6 ml PBS/1% BSA and 60 μl trypan blue.

[4] = tested on: U937 cells; assay: Escape velocity of PMA-treated U937 cells, time course
Procedure: PMA was dissolved in ethanol at a concentration of 5 mg/mL. 3 mls of U937 cells grown in RPMI 1640 media with supplements were removed from the culture flask and 1 ml was placed into each of three eppendorf tubes. Cells from the first tube were pelleted for 4 minutes at 10,000 rpm and resuspended in 250 uL PBS/1% BSA buffer for escape velocity measurements. […] These tubes were vortexed and placed in a 37° C. water bath for either one hour or six hours. At the end of the time point, the tube was removed, cells were pelleted and then resuspended as described above and escape velocity measurements taken.
The preferred method of performing cellular interrogation is through optical interrogation which includes determining the optophoretic properties of the cell(s). The optophoretic properties of the cell(s) can be determined in any number of ways. In one preferred embodiment, the escape velocity of cell(s) is used to determine the optophoretic properties. The escape velocity (measured typically in μm/sec) is defined as the minimum speed at which an interrogated cell no longer tracks the moving optical gradient.
The objective of this experiment is to compare the escape velocities of U937 cells that have been treated with the phorbol ester, phorbol 12 myristate 13-acetate (PMA), to the escape velocity of untreated U937 cells. PMA activates the Protein Kinase C pathway and may cause the cells to go into rapid cell differentiation, which may be indicated by a shift in escape velocity. The effect of PMA activation was tested at three timepoints: no activation, 1 hour of activation, and 6 hours of activation. At the end of the activation period, the cells were centrifuged for 4 minutes at 10,000 rpm. […] The cells were then centrifuged again and resuspended in buffer. The escape velocity and the cell size of cells from each tube were then calculated.

[5] = tested on: U937 cells; assay: Quantitative determination of PKC activation, escape velocity dose response; conditions: five hours
Procedure: Optophoretic analysis was used to develop a full dose response curve for U937 cells treated with PMA. U937 cells were incubated with varying amounts of PMA dissolved in DMSO. The following concentrations of PMA were tested: 0.156 ng/ml, 0.312 ng/ml, 0.625 ng/ml, 1.25 ng/ml, 2.5 ng/ml, 5 ng/ml, and no PMA (control). […] Escape velocity measurements were then taken using a 100 mW laser having a beam diameter of 28 pixels. Table 9 reproduced below sets forth the measured escape velocities (μm/sec) for each of the various PMA concentrations.
The method described above may be used to quantitatively determine the level of PKC activation in cells in response to exposure to PKC activating compound using a moving optical gradient. The method includes the steps of first providing a series of cell samples and exposing the series of cell samples to different concentrations of the PKC activating compound. After a period of incubation from about one to several hours, the cells and the optical gradient are moved relative to each other so as to cause displacement of at least some of the cells. Next, the displacement of at least a portion of the displaced cells is measured for each of the different concentrations. […] From the dose response curve, one is able to calculate one or more numerical values that correlate to PKC potency and/or efficacy. For example, the dose response curve can be used to calculate the EC50, Hill slope, or plateau value relative to a standard compound.

CCCCCCCCCCCCCC(=O)O[C@@H]1[C@@H](C)[C@@]2(O)[C@@H](C=C(CO)C[C@]3(O)C(=O)C(C)=C[C@@H]23)[C@@H]2C(C)(C)[C@]12OC(C)=O [PMA, phorbol 12 myristate 13-acetate]
Escape velocity Ave. ([1]; 10 pg/ml PMA, 1 Hour Activation): 14.4
Escape velocity Ave. ([1]; 10 pg/ml PMA, 3 Hour Activation): 14.5
Escape velocity Ave. ([1]; 10 pg/ml PMA, 5 Hour Activation): 14.1
Escape velocity Ave. ([1]; 100 pg/ml PMA, 1 Hour Activation): 14.4
Escape velocity Ave. ([1]; 100 pg/ml PMA, 3 Hour Activation): 15.5
Escape velocity Ave. ([1]; 100 pg/ml PMA, 5 Hour Activation): 16.1
Escape velocity Ave. ([1]; 1 ng/ml PMA, 1 Hour Activation): 14.3
Escape velocity Ave. ([1]; 1 ng/ml PMA, 3 Hour Activation): 15.1
Escape velocity Ave. ([1]; 1 ng/ml PMA, 5 Hour Activation): 16.5
Escape velocity Ave. ([1]; 10 ng/ml PMA, 1 Hour Activation): 14.8
Escape velocity Ave. ([1]; 10 ng/ml PMA, 3 Hour Activation): 15.2
Escape velocity Ave. ([1]; 10 ng/ml PMA, 5 Hour Activation): 16.2
Optophoretic difference (escape velocity) ([1]; two lowest concentrations, 10 pg/ml and 1 pg/ml): no Optophoretic difference
Escape velocity Average ([2]; HL-60 + PMA at 72 hours (differentiated), control 11.9): 14.0 μm/sec
increase in measured escape velocity as compared to the control cells ([2]; HL-60 cells, 72 hours): about 2 μm/se c
Escape velocity Ave. [3]: 15.4 μm/sec
distribution of escape velocities (FIG. 31) ([4]; 0.01 μg/ml PMA, 6 and 9 hours post treatment): clear trend toward higher escape velocities over time
escape velocity as compared to the untreated cells ([4]; 5 ug/mL PMA, 6 hours): significantly higher escape velocity
Escape velocity Average ([4]; 1 hour of PMA activation): 15.3 μm/sec
Escape velocity Average ([4]; 6 hours of PMA activation): 28.0 μm/sec
Escape velocity Average ([5]; 1.25 ng/ml PMA): 17.0 μm/sec
Escape velocity Average ([5]; 2.5 ng/ml PMA): 17.0 μm/sec
Escape velocity Average ([5]; 5 ng/ml PMA): 17.3 μm/sec
Escape velocity Average ([5]; .156 ng/ml PMA): 15.8 μm/sec
Escape velocity Average ([5]; .312 ng/ml PMA): 16.0 μm/sec
Escape velocity Average ([5]; .625 ng/ml PMA): 16.6 μm/sec
EC50 ([5]; Homo sapiens, U-937, 5 h, escape velocity, U937 cells, read-out: EC50 value of the PMA dose response curve (FIG. 53)): ~0.625 ng/mL (≈ 1.01 nM)
PMA concentrations at which a significant shift in escape velocity is seen ([5]; U937 cells): exceeding 0.625 ng/ml
